Experimental data as given in ChEMBL document CHEMBL1133273, “Synthesis and evaluation of quinoline carboxyguanidines as antidiabetic agents” (2000).

What was measured:
Format in all cases: functional
Rattus norvegicus [1] = assay: Percent glycaemia evolution at 200 mg/kg at 2 hr after a sharp administration (J1) in Wistar rats
Rattus norvegicus [2] = assay: Percent glycaemia evolution at 200 mg/kg at 2 hr after the last administration for 4 days chronic treatment (J4) in Wistar rats
Rattus norvegicus [3] = assay: Percent glycaemia evolution at 20 mg/kg at 2 hr after a sharp administration (J1) in Wistar rats
Rattus norvegicus [4] = assay: Percent glycaemia evolution at 20 mg/kg at 2 hr after the last administration for 4 days chronic treatment (J4) in Wistar rats
Rattus norvegicus [5] = assay: Number of deaths at 200 mg/kg at 2 hr after the last administration for 4 days chronic treatment (J4) in Wistar rats; 4 death/5
Rattus norvegicus [6] = assay: Number of deaths at 20 mg/kg at 2 hr after the last administration for 4 days chronic treatment (J4) in Wistar rats; 1 death/5

Compound | Glycaemia evolution (Rattus norvegicus [1]) [%] | Glycaemia evolution (Rattus norvegicus [2]) [%] | Glycaemia evolution (Rattus norvegicus [3]) [%] | Glycaemia evolution (Rattus norvegicus [4]) [%] | No. of deaths (Rattus norvegicus [5]) | No. of deaths (Rattus norvegicus [6])
CCOc1cc(C(=O)NN=C(N)N)nc2ccc(F)cc12.Cl | -4 | -14 | 6 | -3 |  | 
CCOc1cc(C(=O)Nc2nn[nH]n2)nc2ccc(F)cc12 | 9 | -6 | 8 | 4 |  | 
CCn1cc(C(=O)N=C(N)N)c(=O)c2cc(OC)ccc21.Cl | 0 | -9 | 0 | 0 |  | 
CCOc1cc(C(=O)NNC(N)=O)nc2ccc(F)cc12 | 8 | -3 | 3 | -8 |  | 
CCOc1cc(C(=O)N=C(N)N)nc2ccc(F)cc12.Cl | -5 | -30 | -8 | -10 |  | 
Cl.N=C(N)NC(=O)c1cc(Cl)c2cc(F)ccc2n1 | 58 |  | 19 |  | 4 | 1
COc1ccc2ncc(C(=O)N=C(N)N)c(O)c2c1.Cl | -8 | 3 | 5 | 3 |  | 
CCn1cc(C(=O)N=C(N)N)c(=O)c2ccc(C)nc21.Cl | -4 | -21 | 1 | -11 |  | 
Cl.N=C(N)NC(=O)c1cc(O)c2cc(F)ccc2n1 | -7 | -14 | -5 | -15 |  | 
CCN1CC(C(=O)N/N=C(\N)N=C(N)N)C(=O)c2cc(OC)ccc21.Cl (stereo not given) | 2 | -5 | -3 | -2 |  | 
CCOc1cc(C(=O)N=C(N)N)nc2cc(OC)ccc12 | 6 | 2 | 2 | -2 |  | 
CCOc1cc(C(=O)N=C(N)N)nc2cc3c(cc12)OCO3.Cl | -4 | -7 | 1 | -6 |  | 
Cl.N=C(N)NNC(=O)c1cc(O)c2cc(F)ccc2n1 | 8 | -2 | 8 | 4 |  | 
NC(=O)NNC(=O)c1cc(O)c2cc(F)ccc2n1 | -7 | -14 | -6 | -16 |  | 
CCn1cc(C(=O)NN=C(N)N)c(=O)c2cc(OC)ccc21.Cl | 6 | -6 | -10 | -12 |  | 
